Patent US20160206606A1, “TOPICAL COMPOSITIONS COMPRISING A THIAZOLIDINEDIONE” (Topokine Therapeutics, Inc., priority 2014, published 2016)
Structures can show the parent of a compound that is named as a salt. Where two headings read alike, the source gives them in different places.

Experiments:
[1] = Solubility by serial addition of solvent to a known mass of the TZD until full dissolution; assay type: physicochemical
Procedure: The solubility of rosiglitazone maleate and pioglitazone hydrochloride in various solvents was tested by a standard method, i.e., serial addition of solvent to a known mass of the TZD compound, until full dissolution was observed. Additional solubility results were obtained from the literature. […] This phenomenon occurred in formulations comprising water, as well as formulations lacking water. […] Next, the solubility of troglitazone in various solvents was tested by a standard method, i.e., serial addition of solvent to a known mass of troglitazone, until full dissolution was observed. Additional solubility results were obtained from the literature.

[2] = cited from earlier work; for solubility in ethanol: background statement, temperature not stated
[3] = solvent: 70% ethanol, 27% PG, 3% oleic acid
[4] = solvent: 70% ethanol, 30% propylene glycol (PG)

| SMILES | Solubility at 25° C. ([1]; solvent: 65% ethanol, 25% PG, 7% water, 3% oleic acid) | Solubility at 25° C. [1, 3] | solubility in ethanol [2] | Solubility at 25° C. ([2]; solvent: Ethanol) | Solubility at 25° C. ([2]; solvent: Water) | increase of solubility in the vehicle on addition of oleic acid ([1]; about 3% w/w oleic acid added to ethanol-based vehicle) | increase of solubility in the vehicle on addition of oleic acid ([1]; about 3% w/w oleic acid added to isopropanol-based vehicle) | Solubility at 25° C. ([1]; solvent: 63% ethanol, 24% PG, 10% water, 3% oleic acid) | Solubility at 25° C. [1, 4] | Solubility at 25° C. ([1]; solvent: 70% isopropyl alcohol, 27% PG, 3% oleic acid) | Solubility at 25° C. ([1]; solvent: 70% isopropyl alcohol, 30% PG) |
| --- | --- | --- | --- | --- | --- | --- | --- | --- | --- | --- | --- |
| CCc1ccc(CCOc2ccc(CC3SC(=O)NC3=O)cc2)nc1 (stereo not drawn) [pioglitazone hydrochloride] | ~9 mg/g | ~9 mg/g | ~4 mg/mL | 4 mg/mL | 0.05 mg/mL |  |  |  |  |  |  |
| CN(CCOc1ccc(CC2SC(=O)NC2=O)cc1)c1ccccn1 (stereo not drawn) [rosiglitazone maleate] |  | ~10 mg/g | about 0.25 mg/mL | 0.25 mg/mL |  | over 75 fold | about 3 fold | ~10 mg/g | 0.13 mg/g | 1.2 mg/g | 0.4 mg/g |
| Cc1c(C)c2c(c(C)c1O)CCC(C)(COc1ccc(CC3SC(=O)NC3=O)cc1)O2 (stereo not drawn) [troglitazone] |  | 0.6 mg/g |  | 0.3 mg/mL^b | 0.02 mg/mL^a |  |  |  | 0.3 mg/g |  |  |
